{
  "source": "patent US9179694B2",
  "about": "“Method and composition for enhancing milk production and milk component concentrations” (PURINA ANIMAL NUTRITION LLC, priority 2003, dated 2015)",
  "key": {"[1]": {"assay": "Non-esterified fatty acid (NEFA) concentration in blood in sorbitol feeding trials", "type": "in vivo, Holstein cows", "details": "for lower concentration of NEFA in the blood: at about the time of giving birth", "protocol": "To determine the weight percent of non-esterified fatty acid NEFA, wet basis, in a sample of blood, the blood sample is analyzed by an enzymatic colorimetric method (ACS-ACOD) using the NEFA C diagnostic kit (WAKO Chemicals USA, Richmond, Va.) in combination with an Hitachi 704 Automated Chemistry Analyzer (Hitachi Ltd., Tokyo, Japan). The enzymatic colorimetric method utilizes acyl-CoA synthethase (ACS) and acyl-CoA oxidase (ACOD) to produce a substance that may be measured colorimetrically. The NEFA analysis is conducted in accordance with the NEFA C ACS-ACOD Method instructions that WAKO Chemicals USA provides along with the NEFA C diagnostic kit.\n(§1) Each cow of each of the six different trials (Control Trial #1, Control Trial #2, Pre-Partum Trial #1, Pre-Partum Trial #2, Pre/Post Trial #1, and Pre/Post Trial #2) was milked three times daily and the weight of produced milk by each cow was recorded at each milking. The milk from each cow was sampled once per week (⅓ of the sample volume from each of the three milkings occurring on the weekly milk sampling day) and was analyzed for true protein, total fat, lactose, and total solids, as detailed in the property determination and characterization techniques presented above. Additionally, samples of blood were periodically obtained from each cow during the four trials (Control Trial 2, Pre-Partum Trial #2, Pre/Post Trial #1, and Pre/Post Trial #2) encompassed in Example Two and were analyzed for non-esterified fatty acid (NEFA) content as detailed in the property determination and characterization techniques presented above. No NEFA analysis was conducted on the cows employed in Control Trial #1 or Pre-Partum Trial #1 that are the subject of Example One.\nExample Two includes Control Trial #2, Pre-Partum Trial #2, Pre/Post Trial #1, and Pre/Post Trial #2. Only multiparious, Holstein cows were included in Control Trial #2, Pre-Partum Trial #1, Pre/Post Trial #1, and Pre/Post Trial #2. Eighteen multiparious cows were included in both Control Trial #2 and Pre-Partum Trial #2, while sixteen multiparious cows were included in Pre/Post Trial #1 and seventeen multiparious cows were included in Pre/Post Trial #2."}, "[2]": {"assay": "Milk production (as is basis) in sorbitol feeding trials", "type": "in vivo, Holstein cows", "protocol": "as §1, with “One. Example One includes Control Trial #1 and Pre-Partum Trial #1. Both primiparious cows and multiparious cows were included in Control Trial #1 and Pre-Partum Trial #1. Five primiparious cows and fifteen multiparious cows were included in Control Trial #1; likewise, five primiparious cows and fifteen multiparious cows were included in Pre-Partum Trial #1. All cows included in Control Trial #1 and Pre-Partum Trial #1 were Holsteins. Example Two includes Control Trial #2, Pre-Partum Trial #2, Pre/Post Trial #1, and Pre/Post Trial #2. Only multiparious, Holstein cows were included in Control Trial #2, Pre-Partum Trial #1, Pre/Post Trial #1, and Pre/Post Trial #2. Eighteen multiparious cows were included in both Control Trial #2 and Pre-Partum Trial #2, while sixteen multiparious cows were included in Pre/Post Trial #1 and seventeen multiparious cows were included in Pre/Post Trial #2.” for “One.”"}},
  "note": "Marks after values point to notes of the source that are not given here.",
  "data": [
    {"compound": "OC[C@@H](O)[C@@H](O)[C@H](O)[C@@H](O)CO", "note": "[sorbitol]", "values": [
      {"measurement": "Non-Esterified Fatty Acid (NEFA) Concentration in Blood", "setting": "[1]; Pre-Partum Trial #2 (75/0/100 g/day in wk −3..−1/+1..+4/+5..+8), multiparious cows, day 0 (Calving)", "result": "0.470^ab mEq/l"},
      {"measurement": "Non-Esterified Fatty Acid (NEFA) Concentration in Blood", "setting": "[1]; Pre-Partum Trial #2 (75/0/100 g/day in wk −3..−1/+1..+4/+5..+8), multiparious cows, day +10", "result": 0.372, "unit": "mEq/l"},
      {"measurement": "Non-Esterified Fatty Acid (NEFA) Concentration in Blood", "setting": "[1]; Pre-Partum Trial #2 (75/0/100 g/day in wk −3..−1/+1..+4/+5..+8), multiparious cows, day −7", "result": 0.122, "unit": "mEq/l"},
      {"measurement": "Non-Esterified Fatty Acid (NEFA) Concentration in Blood", "setting": "[1]; Pre-Partum Trial #2 (75/0/100 g/day in wk −3..−1/+1..+4/+5..+8), multiparious cows, day −21", "result": 0.103, "unit": "mEq/l"},
      {"measurement": "Non-Esterified Fatty Acid (NEFA) Concentration in Blood", "setting": "[1]; Pre/Post Trial #1 (150/125/100 g/day in wk −3..−1/+1..+4/+5..+8), multiparious cows, day 0 (Calving)", "result": "0.416^a mEq/l"},
      {"measurement": "Non-Esterified Fatty Acid (NEFA) Concentration in Blood", "setting": "[1]; Pre/Post Trial #1 (150/125/100 g/day in wk −3..−1/+1..+4/+5..+8), multiparious cows, day 0 (Calving), two-trial comparison with Control Trial #2 (Table 27)", "result": "0.416^b mEq/l"},
      {"measurement": "Non-Esterified Fatty Acid (NEFA) Concentration in Blood", "setting": "[1]; Pre/Post Trial #1 (150/125/100 g/day in wk −3..−1/+1..+4/+5..+8), multiparious cows, day +10", "result": 0.476, "unit": "mEq/l"},
      {"measurement": "Non-Esterified Fatty Acid (NEFA) Concentration in Blood", "setting": "[1]; Pre/Post Trial #1 (150/125/100 g/day in wk −3..−1/+1..+4/+5..+8), multiparious cows, day +10, two-trial comparison with Control Trial #2 (Table 27)", "result": 0.476, "unit": "mEq/l"},
      {"measurement": "Non-Esterified Fatty Acid (NEFA) Concentration in Blood", "setting": "[1]; Pre/Post Trial #1 (150/125/100 g/day in wk −3..−1/+1..+4/+5..+8), multiparious cows, day −7", "result": 0.107, "unit": "mEq/l"},
      {"measurement": "Non-Esterified Fatty Acid (NEFA) Concentration in Blood", "setting": "[1]; Pre/Post Trial #1 (150/125/100 g/day in wk −3..−1/+1..+4/+5..+8), multiparious cows, day −7, two-trial comparison with Control Trial #2 (Table 27)", "result": 0.107, "unit": "mEq/l"},
      {"measurement": "Non-Esterified Fatty Acid (NEFA) Concentration in Blood", "setting": "[1]; Pre/Post Trial #1 (150/125/100 g/day in wk −3..−1/+1..+4/+5..+8), multiparious cows, day −21", "result": 0.141, "unit": "mEq/l"},
      {"measurement": "Non-Esterified Fatty Acid (NEFA) Concentration in Blood", "setting": "[1]; Pre/Post Trial #1 (150/125/100 g/day in wk −3..−1/+1..+4/+5..+8), multiparious cows, day −21, two-trial comparison with Control Trial #2 (Table 27)", "result": 0.141, "unit": "mEq/l"},
      {"measurement": "lower NEFA concentrations in blood", "setting": "[1]; Pre/Post Trial #1 (150/125/100 g/day) versus Control Trial #2, multiparious cows, at calving (Table 27)", "result": 42, "unit": "%"},
      {"measurement": "Non-Esterified Fatty Acid (NEFA) Concentration in Blood", "setting": "[1]; Pre/Post Trial #2 (75/75/100 g/day in wk −3..−1/+1..+4/+5..+8), multiparious cows, day 0 (Calving)", "result": "0.637^ab mEq/l"},
      {"measurement": "Non-Esterified Fatty Acid (NEFA) Concentration in Blood", "setting": "[1]; Pre/Post Trial #2 (75/75/100 g/day in wk −3..−1/+1..+4/+5..+8), multiparious cows, day +10", "result": 0.556, "unit": "mEq/l"},
      {"measurement": "Non-Esterified Fatty Acid (NEFA) Concentration in Blood", "setting": "[1]; Pre/Post Trial #2 (75/75/100 g/day in wk −3..−1/+1..+4/+5..+8), multiparious cows, day −7", "result": 0.119, "unit": "mEq/l"},
      {"measurement": "Non-Esterified Fatty Acid (NEFA) Concentration in Blood", "setting": "[1]; Pre/Post Trial #2 (75/75/100 g/day in wk −3..−1/+1..+4/+5..+8), multiparious cows, day −21", "result": 0.114, "unit": "mEq/l"},
      {"measurement": "lower concentration of NEFA in the blood", "setting": "[1]; Pre/Post Trial #2 (so in the source) versus Control Trial #2, multiparious cows", "result": 42, "unit": "%"},
      {"measurement": "NEFA concentrations in blood compared with control", "setting": "[1]; all three sorbitol feeding trials (Pre-Partum Trial #2, Pre/Post Trial #1, Pre/Post Trial #2), multiparous cows, the week before calving and at calving", "result": "lower than the NEFA concentrations in blood found during Control Trial #2"},
      {"measurement": "lower concentration of NEFA in the blood", "setting": "[1]; average of means of Pre-Partum Trial #2, Pre/Post Trial #1 and Pre/Post Trial #2 versus Control Trial #2, multiparious cows", "result": 28, "unit": "%"},
      {"measurement": "Milk Production (As Is Basis)", "setting": "[2]; Pre-Partum Trial #1 (75/0/0 g/day in wk −3..−1/+1..+4/+5..+8), multiparious cows, weeks +1 through +8", "result": 99.9, "unit": "lbs/day"},
      {"measurement": "Milk Production (As Is Basis)", "setting": "[2]; Pre-Partum Trial #1 (75/0/0 g/day in wk −3..−1/+1..+4/+5..+8), primiparious cows, weeks +1 through +8", "result": 71.7, "unit": "lbs/day"},
      {"measurement": "increase in milk production", "setting": "[2]; Pre-Partum Trial #1 (75 g/day wk −3..−1 only) versus Control Trial #1, multiparious cows, weeks +1 through +8", "result": 9.2, "unit": "%"},
      {"measurement": "Milk Production (As Is Basis)", "setting": "[2]; Pre-Partum Trial #2 (75/0/100 g/day in wk −3..−1/+1..+4/+5..+8), multiparious cows, week +1", "result": 62.8, "unit": "lbs/day"},
      {"measurement": "Milk Production (As Is Basis)", "setting": "[2]; Pre-Partum Trial #2 (75/0/100 g/day in wk −3..−1/+1..+4/+5..+8), multiparious cows, week +2", "result": 92.6, "unit": "lbs/day"},
      {"measurement": "Milk Production (As Is Basis)", "setting": "[2]; Pre-Partum Trial #2 (75/0/100 g/day in wk −3..−1/+1..+4/+5..+8), multiparious cows, week +3", "result": 102, "unit": "lbs/day"},
      {"measurement": "Milk Production (As Is Basis)", "setting": "[2]; Pre-Partum Trial #2 (75/0/100 g/day in wk −3..−1/+1..+4/+5..+8), multiparious cows, week +4", "result": 111, "unit": "lbs/day"},
      {"measurement": "Milk Production (As Is Basis)", "setting": "[2]; Pre-Partum Trial #2 (75/0/100 g/day in wk −3..−1/+1..+4/+5..+8), multiparious cows, week +5", "result": 115, "unit": "lbs/day"},
      {"measurement": "Milk Production (As Is Basis)", "setting": "[2]; Pre-Partum Trial #2 (75/0/100 g/day in wk −3..−1/+1..+4/+5..+8), multiparious cows, week +6", "result": 115, "unit": "lbs/day"},
      {"measurement": "Milk Production (As Is Basis)", "setting": "[2]; Pre-Partum Trial #2 (75/0/100 g/day in wk −3..−1/+1..+4/+5..+8), multiparious cows, week +7", "result": 115, "unit": "lbs/day"},
      {"measurement": "Milk Production (As Is Basis)", "setting": "[2]; Pre-Partum Trial #2 (75/0/100 g/day in wk −3..−1/+1..+4/+5..+8), multiparious cows, week +8", "result": 111, "unit": "lbs/day"},
      {"measurement": "Milk Production (As Is Basis)", "setting": "[2]; Pre-Partum Trial #2 (75/0/100 g/day in wk −3..−1/+1..+4/+5..+8), multiparious cows, weeks +1 through +4", "result": 92.0, "unit": "lbs/day"},
      {"measurement": "Milk Production (As Is Basis)", "setting": "[2]; Pre-Partum Trial #2 (75/0/100 g/day in wk −3..−1/+1..+4/+5..+8), multiparious cows, weeks +1 through +8", "result": 103, "unit": "lbs/day"}
    ]}
  ]
}
